From PubChem BioAssay AID330 (DTP/NCI, 2004) come the findings set out here.

For this assay, the system named is P388 leukemia ip, CD2F1 mice, survival T/C. Briefly: NCI In Vivo Anticancer Drug Screen. Data for tumor model P388 Leukemia (intraperitoneal) in CD2F1 (CDF1) mice. The settings on record: endpoint: median survival time, higher = longer survival. An outline of the steps: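 Mice carrying the transplanted tumor received test compound or vehicle. Survival was recorded in each group, and the value is the treated-group measurement divided by that of the vehicle-treated control group.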

[1] abbreviates: dose: 100.0 mg/kg/injection, schedule: Q01DX001 (ip), vehicle: Klucel (hydroxypropylcellulose) (HPC).
The mark [2] stands for this setting: dose: 200.0 mg/kg/injection, schedule: Q01DX001 (ip), vehicle: Klucel (hydroxypropylcellulose) (HPC).
The mark [3] stands for this setting: dose: 60.0 mg/kg/injection, schedule: Q01DX005 (ip), vehicle: saline with Tween-80.
[4] abbreviates: dose: 120.0 mg/kg/injection, schedule: Q01DX005 (ip), vehicle: saline with Tween-80.
[5] abbreviates: dose: 12.5 mg/kg/injection, schedule: Q01DX009 (ip), vehicle: Klucel (hydroxypropylcellulose) (HPC).
[6] abbreviates: dose: 50.0 mg/kg/injection, schedule: Q01DX009 (ip), vehicle: Klucel (hydroxypropylcellulose) (HPC).
Where [7] appears, read: dose: 50.0 mg/kg/injection, schedule: Q01DX009 (ip), vehicle: saline with Tween-80.
[8] abbreviates: dose: 100.0 mg/kg/injection, schedule: Q01DX009 (ip), vehicle: saline with Tween-80.
Setting [9] is: dose: 200.0 mg/kg/injection, schedule: Q01DX009 (ip), vehicle: saline with Tween-80.
The mark [10] stands for this setting: dose: 50.0 mg/kg/injection, schedule: Q01DX005 (ip), vehicle: saline with Tween-80.
Setting [11] is: dose: 25.0 mg/kg/injection, schedule: Q01DX009 (ip), vehicle: saline.
[12] abbreviates: dose: 50.0 mg/kg/injection, schedule: Q01DX009 (ip), vehicle: saline.
[13] abbreviates: dose: 100.0 mg/kg/injection, schedule: Q01DX009 (ip), vehicle: saline.
The mark [14] stands for this setting: dose: 100.0 mg/kg/injection, schedule: Q01DX009 (ip), vehicle: Klucel (hydroxypropylcellulose) (HPC).
The mark [15] stands for this setting: dose: 200.0 mg/kg/injection, schedule: Q01DX009 (ip), vehicle: Klucel (hydroxypropylcellulose) (HPC).

Several values for one entry are separate records, joined by “and”; a condition that tells them apart may be missing. Equal values may be shown once. Inconclusive results and toxic doses are left out.

For the compound `c1ccc(CN2CCC3(CC2)CO3)cc1`, the T/C is 106 % of control under setting [1] and 100 % of control under setting [2].

As for `O=c1cc(O)n(C2=NCCN2)[nH]1`, the T/C (dose: 60.0 mg/kg/injection, schedule: Q01DX005 (ip), vehicle: suspension in saline) was 97 % of control; the T/C (dose: 120.0 mg/kg/injection, schedule: Q01DX005 (ip), vehicle: suspension in saline) was 97 % of control; the T/C (dose: 240.0 mg/kg/injection, schedule: Q01DX005 (ip), vehicle: suspension in saline) is 105 % of control.

Consider `COc1ccc(/C(C#N)=C/c2cc(OC)c(OC)c(OC)c2)cc1`, for which the T/C runs as follows: (dose: 50.0 mg/kg/injection, schedule: Q01DX005 (ip), vehicle: Klucel (hydroxypropylcellulose) (HPC)) 105 % of control; (dose: 100.0 mg/kg/injection, schedule: Q01DX005 (ip), vehicle: Klucel (hydroxypropylcellulose) (HPC)) 97 % of control; (dose: 200.0 mg/kg/injection, schedule: Q01DX005 (ip), vehicle: Klucel (hydroxypropylcellulose) (HPC)) 101 % of control.

As to `N=C(N)c1ccc2oc(/C=C/c3nc4ccc(C(=N)N)cc4[nH]3)cc2c1`, the T/C runs as follows: under setting [1], 98 % of control; under setting [2], 96 % of control; (dose: 400.0 mg/kg/injection, schedule: Q01DX001 (ip), vehicle: Klucel (hydroxypropylcellulose) (HPC)) 98 % of control.

For the compound `Nc1nnc(-c2ccc[n+]([O-])c2)o1`, the T/C runs as follows: under setting [3], 96 % of control; under setting [4], 102 % of control; (dose: 240.0 mg/kg/injection, schedule: Q01DX005 (ip), vehicle: saline with Tween-80) 105 % of control.

Turning to `CC1SC(C)C1=O` (stereo not given), the T/C was 109 % of control (dose: 60.0 mg/kg/injection, schedule: Q01DX005 (ip), vehicle: saline); 107 % of control (dose: 120.0 mg/kg/injection, schedule: Q01DX005 (ip), vehicle: saline); 100 % of control (dose: 240.0 mg/kg/injection, schedule: Q01DX005 (ip), vehicle: saline).

With `COc1cc2c(cc1OC)CN(C)C(C)C2` (stereo not given), the T/C reads like this: (dose: 12.5 mg/kg/injection, schedule: Q01DX005 (ip), vehicle: saline) 101 % of control; (dose: 25.0 mg/kg/injection, schedule: Q01DX005 (ip), vehicle: saline) 106 % of control; (dose: 50.0 mg/kg/injection, schedule: Q01DX005 (ip), vehicle: saline) 109 % of control and 97 % of control.

Take `COc1cc2ccc3c[n+]4ccccc4cc3c2cc1OC`: the T/C (dose: 6.25 mg/kg/injection, schedule: Q01DX009 (ip), vehicle: Klucel (hydroxypropylcellulose) (HPC)) was 103 % of control and the T/C under setting [5] is 108 % of control.

As to `Cc1cc2cc(C3CCNCC3)oc2cc1C`, the T/C is, setting by setting: under setting [5], 100 % of control; (dose: 25.0 mg/kg/injection, schedule: Q01DX009 (ip), vehicle: Klucel (hydroxypropylcellulose) (HPC)) 100 % of control and 109 % of control; under setting [6], 107 % of control and 109 % of control and 119 % of control.

As for `CCCCCC1CCCC2NC(=O)CCC12` (stereo not given), the T/C was 104 % of control (dose: 100.0 mg/kg/injection, schedule: Q04DX002 (ip), vehicle: saline with Tween-80); 97 % of control (dose: 200.0 mg/kg/injection, schedule: Q04DX002 (ip), vehicle: saline with Tween-80); 89 % of control (dose: 400.0 mg/kg/injection, schedule: Q04DX002 (ip), vehicle: saline with Tween-80).

`CC(=O)OC1SCC2OC(=O)OC21` (stereo not given): the T/C under setting [7] was 108 % of control, the T/C under setting [8] was 95 % of control and the T/C under setting [9] is 96 % of control.

Take `CC(OC1OC(C(=O)O)C(O)C(O)C1O)c1ccccc1` (stereo not given): the T/C reads like this: (dose: 200.0 mg/kg/injection, schedule: Q01DX009 (ip), vehicle: saline sonified) 100 % of control; (dose: 400.0 mg/kg/injection, schedule: Q01DX009 (ip), vehicle: saline sonified) 95 % of control.

Turning to `CCOC(=O)C1(c2ccccc2)C(=O)Oc2ccccc21` (stereo not given), the T/C reads like this: under setting [7], 107 % of control; under setting [8], 124 % of control; under setting [9], 106 % of control.

In the case of `Cc1c(COC(=O)NC(C)C)c(COC(=O)NC(C)C)c(-c2ccccc2)n1-c1ccccc1`, the T/C under setting [10] was 188 % of control and 192 % of control.

As to `COc1c(C=O)c2c(c(C=O)c1OC)OCO2`, the T/C under setting [10] was 100 % of control; the T/C (dose: 100.0 mg/kg/injection, schedule: Q01DX005 (ip), vehicle: saline with Tween-80) was 104 % of control; the T/C (dose: 200.0 mg/kg/injection, schedule: Q01DX005 (ip), vehicle: saline with Tween-80) is 99 % of control.

Take `NCC(SSC(CN)C(=O)O)C(=O)O` (stereo not given): the T/C runs as follows: (dose: 12.5 mg/kg/injection, schedule: Q01DX009 (ip), vehicle: saline) 100 % of control; under setting [11], 101 % of control; under setting [12], 103 % of control and 115 % of control.

`CCCCCCCC[As](CCCCCCCC)SCC1OC(OC(C)=O)C(OC(C)=O)C(OC(C)=O)C1OC(C)=O` (stereo not given): the T/C was 101 % of control under setting [7], 96 % of control under setting [8] and 99 % of control under setting [9].

For `O=C(O)C(F)(F)F.O=C(O)C(F)(F)F.O=C(O)C(F)(F)F.O=C(O)C(F)(F)F.[Rh].[Rh]`, the T/C under setting [11] is 86 % of control; the T/C under setting [12] is 110 % of control; the T/C (dose: 50.0 mg/kg/injection, schedule: Q01DX009 (ip), vehicle: suspension in saline) was 104 % of control; the T/C under setting [13] was 122 % of control; the T/C (dose: 100.0 mg/kg/injection, schedule: Q01DX009 (ip), vehicle: suspension in saline) is 123 % of control.

As for `COc1cc2c(c3c1OCO3)-c1ccc(OC)c(=O)cc1C(NC(C)=O)CC2` (stereo not given), the T/C is 108 % of control (dose: 1.25 mg/kg/injection, schedule: Q01DX009 (ip), vehicle: Klucel (hydroxypropylcellulose) (HPC)); 104 % of control (dose: 2.5 mg/kg/injection, schedule: Q01DX009 (ip), vehicle: Klucel (hydroxypropylcellulose) (HPC)); 111 % of control (dose: 5.0 mg/kg/injection, schedule: Q01DX009 (ip), vehicle: Klucel (hydroxypropylcellulose) (HPC)); 116 % of control (dose: 10.0 mg/kg/injection, schedule: Q01DX009 (ip), vehicle: Klucel (hydroxypropylcellulose) (HPC)); 118 % of control (dose: 20.0 mg/kg/injection, schedule: Q01DX009 (ip), vehicle: Klucel (hydroxypropylcellulose) (HPC)).

Turning to `Cc1cc(OCC(=O)N/N=C/c2ccc(N(CCCl)CCCl)cc2)c2c(=O)c3ccccc3oc2c1`, the T/C (dose: 60.0 mg/kg/injection, schedule: Q01DX005 (ip), vehicle: Klucel (hydroxypropylcellulose) (HPC)) was 94 % of control; the T/C (dose: 120.0 mg/kg/injection, schedule: Q01DX005 (ip), vehicle: Klucel (hydroxypropylcellulose) (HPC)) was 117 % of control; the T/C (dose: 240.0 mg/kg/injection, schedule: Q01DX005 (ip), vehicle: Klucel (hydroxypropylcellulose) (HPC)) is 88 % of control.

`N#CC1CCCC(CCc2ccccc2)(c2ccccc2)C1=O` (stereo not given): the T/C was 101 % of control under setting [6], 104 % of control under setting [14] and 98 % of control under setting [15].

For `CCSC(CC(C)=O)c1ccccc1` (stereo not given), the T/C was 108 % of control under setting [7], 116 % of control under setting [8] and 105 % of control under setting [9].

As to `C=C1C(OC(=O)c2ccccc2)C2[C@@H](OC(=O)CC)[C@@H](C)C[C@]2(O)C(=O)[C@@H](C)/C=C/C(C)(C)C(=O)C(O)[C@H]1OC(=O)C(C)C` (stereo not given in full), the T/C was 102 % of control under setting [3] and 91 % of control under setting [4].

Take `COc1nc(N)c2c3c([nH]c2c1C#N)C(C)(C)c1ccccc1N3C`: the T/C by setting is: under setting [7], 96 % of control; under setting [8], 100 % of control; under setting [9], 94 % of control.

As to `CC(C)CC(NC(=O)OC(C)(C)C)C(=O)NC(Cc1c[nH]c2ccccc12)C(=O)NN` (stereo not given), the T/C by setting is: under setting [11], 87 % of control; under setting [12], 94 % of control; under setting [13], 92 % of control; (dose: 200.0 mg/kg/injection, schedule: Q01DX009 (ip), vehicle: saline) 92 % of control.

Take `COC(=O)CS(=O)(=O)CC(=O)OC`: the T/C was 100 % of control under setting [6], 106 % of control under setting [14] and 101 % of control under setting [15].

Turning to `COc1ccc2c(c1CCl)C(=O)OC2`, the T/C reads like this: (dose: 12.5 mg/kg/injection, schedule: Q01DX009 (ip), vehicle: saline with Tween-80) 96 % of control; (dose: 25.0 mg/kg/injection, schedule: Q01DX009 (ip), vehicle: saline with Tween-80) 111 % of control; under setting [7], 101 % of control and 89 % of control.
